Measurements published in ChEMBL document CHEMBL1137416, “Hydrophobic effect and hydrogen bonds account for the improved activity of a complement inhibitor, compstatin” (J Med Chem, 2006).

Target: Complement C3 (Homo sapiens, UniProt P01024)
Assay: Inhibition of complement C3

Chain of Complement C3 (P01024 23-667 limits assumed): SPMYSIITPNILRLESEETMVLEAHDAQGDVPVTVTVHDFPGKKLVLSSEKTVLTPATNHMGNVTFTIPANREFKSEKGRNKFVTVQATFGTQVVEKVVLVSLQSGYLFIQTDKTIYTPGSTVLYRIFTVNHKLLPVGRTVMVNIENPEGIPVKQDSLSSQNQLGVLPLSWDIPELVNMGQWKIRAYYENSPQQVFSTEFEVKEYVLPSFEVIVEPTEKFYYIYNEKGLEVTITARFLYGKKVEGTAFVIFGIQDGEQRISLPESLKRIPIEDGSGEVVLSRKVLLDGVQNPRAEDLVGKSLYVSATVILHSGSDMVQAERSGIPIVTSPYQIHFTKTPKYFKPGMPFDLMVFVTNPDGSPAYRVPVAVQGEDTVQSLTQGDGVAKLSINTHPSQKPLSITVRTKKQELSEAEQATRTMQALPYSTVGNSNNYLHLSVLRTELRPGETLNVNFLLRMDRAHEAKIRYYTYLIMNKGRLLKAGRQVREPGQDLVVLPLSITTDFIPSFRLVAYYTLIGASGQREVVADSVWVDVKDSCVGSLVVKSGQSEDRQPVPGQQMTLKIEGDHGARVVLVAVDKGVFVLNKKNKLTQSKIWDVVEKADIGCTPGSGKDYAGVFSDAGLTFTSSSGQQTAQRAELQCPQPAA
Chain of Complement C3 (P01024 672-1663 limits assumed): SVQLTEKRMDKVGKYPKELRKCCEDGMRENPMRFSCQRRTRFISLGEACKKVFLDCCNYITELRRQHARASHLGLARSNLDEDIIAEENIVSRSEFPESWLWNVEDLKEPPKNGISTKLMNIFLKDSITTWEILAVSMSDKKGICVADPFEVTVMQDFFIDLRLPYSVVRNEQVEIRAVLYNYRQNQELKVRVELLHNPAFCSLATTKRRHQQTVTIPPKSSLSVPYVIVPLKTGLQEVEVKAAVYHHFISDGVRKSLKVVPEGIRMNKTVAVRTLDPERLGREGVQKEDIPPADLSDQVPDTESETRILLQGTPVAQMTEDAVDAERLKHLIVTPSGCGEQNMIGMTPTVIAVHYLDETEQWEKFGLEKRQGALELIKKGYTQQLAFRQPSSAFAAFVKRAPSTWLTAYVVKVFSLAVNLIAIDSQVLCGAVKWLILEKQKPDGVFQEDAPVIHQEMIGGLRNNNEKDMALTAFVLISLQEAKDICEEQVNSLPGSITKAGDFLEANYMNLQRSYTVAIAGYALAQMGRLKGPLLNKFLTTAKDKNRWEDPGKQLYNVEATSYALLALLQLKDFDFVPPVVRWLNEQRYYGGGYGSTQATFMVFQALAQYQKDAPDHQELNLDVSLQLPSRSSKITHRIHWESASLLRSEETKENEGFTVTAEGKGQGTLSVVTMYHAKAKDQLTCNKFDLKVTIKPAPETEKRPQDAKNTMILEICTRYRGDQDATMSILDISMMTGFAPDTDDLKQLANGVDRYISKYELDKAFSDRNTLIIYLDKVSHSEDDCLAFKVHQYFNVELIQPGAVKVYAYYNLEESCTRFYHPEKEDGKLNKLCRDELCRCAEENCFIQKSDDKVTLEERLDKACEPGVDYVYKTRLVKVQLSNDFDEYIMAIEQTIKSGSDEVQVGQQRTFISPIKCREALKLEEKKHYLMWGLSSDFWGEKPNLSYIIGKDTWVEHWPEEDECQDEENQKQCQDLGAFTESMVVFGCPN

IC50: 545 nM
SMILES: CC[C@H](C)[C@H](NC(C)=O)C(=O)N[C@H]1CSSC[C@@H](C(=O)N[C@H](C(N)=O)[C@@H](C)O)NC(=O)[C@H](CCCNC(=N)N)NC(=O)[C@H](Cc2c[nH]cn2)NC(=O)[C@H](C)NC(=O)CNC(=O)[C@H](Cc2c[nH]c3ccccc23)NC(=O)[C@H](CC(=O)O)NC(=O)[C@H](CCC(N)=O)NC(=O)[C@H](Cc2ccc3ccccc3c2)NC(=O)[C@H](C(C)C)NC1=O
